Test results published in US12011444B2, “N-substituted indole derivatives as PGE2 receptor modulators” (Idorsia Pharmaceuticals Ltd, priority 2015, dated 2024).

Assays:
PTRGER4 (EP4) = PTRGER4 (EP4) (Homo sapiens (Human), UniProt P35408); assay: hEP4 b-arrestin assay (PathHunter HEK 293 PTGER4 b-arrestin cells); assay type: cell-based; settings: antagonistic activity on hEP4; mean where measured multiple times
Outline: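 Antagonist mode: compound is given 15 min at 37 °C, then 20 nM (final) PGE2 for 120 min, in HEK293 cells stably expressing EP4 fused to ProLink and β-arrestin 2 fused to EA. Recruitment read as β-gal luminescence after 1 h reagent at room temperature, as percent of DMSO control.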

PTGER2 (EP2) = PTGER2 (EP2) (Homo sapiens (Human), UniProt P43116); assay: hEP2 b-arrestin assay (PathHunter HEK 293 PTGER2 b-arrestin cells); assay type: cell-based; settings: antagonistic activity on hEP2; mean where measured multiple times
Outline: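 Readout is β-galactosidase complementation luminescence, expressed as percent of DMSO control (duplicates). PathHunter HEK293 EP2/β-arrestin 2 cells, grown 24 h, received compound for 15 min at 37 °C before a 120 min challenge with PGE2 at 5 μM final, followed by 1 h detection at room temperature.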

PTRGER4 (EP4), sequence (P35408 whole entry, looked up, the tested form may be a part): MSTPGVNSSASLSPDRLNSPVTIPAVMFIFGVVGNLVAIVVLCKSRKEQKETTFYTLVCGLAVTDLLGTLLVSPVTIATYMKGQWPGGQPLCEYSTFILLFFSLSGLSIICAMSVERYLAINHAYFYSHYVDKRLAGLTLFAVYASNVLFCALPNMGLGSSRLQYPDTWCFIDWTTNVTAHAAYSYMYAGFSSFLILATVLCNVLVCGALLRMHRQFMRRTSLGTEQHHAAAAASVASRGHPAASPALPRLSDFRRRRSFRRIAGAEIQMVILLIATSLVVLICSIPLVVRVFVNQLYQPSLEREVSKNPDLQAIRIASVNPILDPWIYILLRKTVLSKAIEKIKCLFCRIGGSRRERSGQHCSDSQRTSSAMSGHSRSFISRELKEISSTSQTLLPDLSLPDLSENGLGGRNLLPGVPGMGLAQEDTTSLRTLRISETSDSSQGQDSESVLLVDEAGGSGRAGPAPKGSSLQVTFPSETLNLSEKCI
PTGER2 (EP2), sequence (P43116 whole entry): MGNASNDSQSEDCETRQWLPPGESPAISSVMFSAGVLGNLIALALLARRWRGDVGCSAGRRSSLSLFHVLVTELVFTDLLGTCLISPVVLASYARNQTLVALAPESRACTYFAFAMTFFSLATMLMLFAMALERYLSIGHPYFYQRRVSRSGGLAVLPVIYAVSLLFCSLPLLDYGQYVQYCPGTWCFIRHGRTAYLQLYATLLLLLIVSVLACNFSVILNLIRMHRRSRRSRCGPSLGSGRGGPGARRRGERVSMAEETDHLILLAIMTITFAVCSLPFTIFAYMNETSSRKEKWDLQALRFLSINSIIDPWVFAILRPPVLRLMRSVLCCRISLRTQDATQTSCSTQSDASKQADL

Row | IC50 (PTRGER4 (EP4)) [µM] | IC50 (PTGER2 (EP2)) [µM] | SMILES
1 | 0.824 | 0.034 | CCOc1cc(-c2cc(NCCn3c(C)cc4cc(C)cc(Cl)c43)ncn2)ccc1C(=O)O [compound 284]
2 | 0.691 | 0.047 | CCOc1cc(-c2cc(NCCn3c(C)cc4cc(C)cc(F)c43)ncn2)ccc1C(=O)O [compound 285]
3 | 0.268 | 0.031 | COc1cc(-c2cc(NCCn3c(C)cc4c(C)ccc(F)c43)ncn2)cc(C)c1C(=O)O [compound 286]
4 | 0.963 | 0.183 | COc1ccc(Cl)c2c1cc(C)n2CCNc1cc(-c2cc(C)c(C(=O)O)c(C)c2)ncn1 [compound 287]
5 | 0.714 | 0.019 | CCc1cc(-c2cc(NCCn3c(C)cc4c(OC)ccc(Cl)c43)ncn2)ccc1C(=O)O [compound 288]
6 | 0.299 | 0.053 | COc1ccc(F)c2c1cc(C)n2CCNc1cc(-c2cc(C)c(C(=O)O)c(C)c2)ncn1 [compound 289]
7 | 0.102 | 0.028 | CCc1cc(-c2cc(NCCn3c(C)cc4c(OC)ccc(F)c43)ncn2)ccc1C(=O)O [compound 290]
8 | 0.104 | 0.041 | COc1cc(F)cc2c1cc(C)n2CCNc1cc(-c2cc(Cl)c(C(=O)O)c(Cl)c2)ncn1 [compound 291]
9 | 0.397 | 0.052 | COc1ccc(Cl)c2c1cc(C)n2CCNc1cc(-c2cc(Cl)c(C(=O)O)c(Cl)c2)ncn1 [compound 292]
10 | 0.113 | 0.019 | COc1ccc(F)c2c1cc(C)n2CCNc1cc(-c2cc(Cl)c(C(=O)O)c(Cl)c2)ncn1 [compound 293]
11 | 0.01 | 0.008 | CCOc1cc(-c2cc(NCCn3c(C)cc4c(C)cc(F)c(F)c43)ncn2)sc1C(=O)O [compound 294]
12 | 0.95 | 0.012 | CCc1cc(-c2cc(NCCn3c(C)cc4c5c(cc(Cl)c43)OCO5)ncn2)ccc1C(=O)O [compound 295, 4-{6-[2-(5-Chloro-7-methyl-[1,3]dioxolo[4,5-e]indol-6-yl)-ethylamino]-pyrimidin-4-yl}-2-ethyl-benzoic acid]
13 | 0.259 | 0.007 | COc1ccc(F)c2c1cc(C)n2CCNc1cc(-c2ccc(C(=O)O)c(C3CC3)c2)ncn1 [compound 296, 2-Cyclopropyl-4-{6-[2-(7-fluoro-4-methoxy-2-methyl-indol-1-yl)-ethylamino]-pyrimidin-4-yl}-benzoic acid]
14 | 0.814 | 0.539 | Cc1cc(F)cc2c1cc(C)n2CCNc1cc(-c2ccc3[nH]c(C(F)(F)F)nc3c2)ncn1 [compound 297]
15 | 0.249 | 0.019 | Cc1sc(N)nc1-c1ccc(-c2cc(NCCn3c(C)cc4c(C)ccc(F)c43)ncn2)cc1 [compound 298, {6-[4-(2-Amino-5-methyl-thiazol-4-yl)-phenyl]-pyrimidin-4-yl}-[2-(7-fluoro-2,4-dimethyl-indol-1-yl)-ethyl]-amine]
16 | 0.081 | 0.01 | COc1cc(F)c(F)c2c1cc(C)n2CCNc1cc(-c2ccc(-c3ncno3)cc2)ncn1 [compound 299, [2-(6,7-Difluoro-4-methoxy-2-methyl-indol-1-yl)-ethyl]-[6-(4-[1,2,4]oxadiazol-5-yl-phenyl)-pyrimidin-4-yl]-amine]
17 | 0.494 | 0.04 | COc1cccc2c1cc(C)n2CCNc1cc(-c2ccc(-c3nnc(C)o3)c(F)c2)ncn1 [compound 300, {6-[3-Fluoro-4-(5-methyl-[1,3,4]oxadiazol-2-yl)-phenyl]-pyrimidin-4-yl}-[2-(4-methoxy-2-methyl-indol-1-yl)-ethyl]-amine]
18 | 0.358 | 0.103 | COc1cc(F)cc2c1cc(C)n2CCNc1cc(-c2ccc(-c3nc(C)no3)cc2)ncn1 [compound 301]
19 | 0.145 | 0.033 | COc1ccc(F)c2c1cc(C)n2CCNc1cc(-c2ccc(-c3nc(C)no3)cc2)ncn1 [compound 302, [2-(7-Fluoro-4-methoxy-2-methyl-indol-1-yl)-ethyl]-{6-[4-(3-methyl-[1,2,4]oxadiazol-5-yl)-phenyl]-pyrimidin-4-yl}-amine]
20 | 0.322 | 0.033 | COc1ccc(F)c2c1cc(C)n2CCNc1cc(-c2ccc(-c3noc(C)n3)cc2)ncn1 [compound 303, [2-(7-Fluoro-4-methoxy-2-methyl-indol-1-yl)-ethyl]-{6-[4-(5-methyl-[1,2,4]oxadiazol-3-yl)-phenyl]-pyrimidin-4-yl}-amine]
21 | 0.012 | 0.002 | COc1ccc(F)c2c1cc(C)n2CCNc1cc(-c2ccc(-c3cc(N)no3)cc2)ncn1 [compound 304, {6-[4-(3-Amino-isoxazol-5-yl)-phenyl]-pyrimidin-4-yl}-[2-(7-fluoro-4-methoxy-2-methyl-indol-1-yl)-ethyl]-amine]
22 | 0.207 | 0.408 | Cc1nnc(-c2ccc(-c3cc(NCCn4c(C)cc5c(C)ccc(F)c54)ncn3)cc2F)o1 [compound 306]
23 | 0.047 | 0.025 | COc1cc(F)c(F)c2c1cc(C)n2CCNc1cc(-c2ccc(-c3c[nH]cn3)cc2)ncn1 [compound 307, [2-(6,7-Difluoro-4-methoxy-2-methyl-indol-1-yl)-ethyl]-{6-[4-(1H-imidazol-4-yl)-phenyl]-pyrimidin-4-yl}-amine]
24 | 0.429 | 0.383 | COc1cccc2c1cc(C)n2CCNc1cc(-c2ccc(Cn3cccn3)c(F)c2)ncn1 [compound 308]
25 | 0.086 | 0.011 | COc1cc(F)cc2c1cc(C)n2CCNc1cc(-c2ccc(-c3ccn(C)n3)cc2)ncn1 [compound 309, [2-(6-Fluoro-4-methoxy-2-methyl-indol-1-yl)-ethyl]-{6-[4-(1-methyl-1H-pyrazol-3-yl)-phenyl]-pyrimidin-4-yl}-amine]
